Columns and labels:
Thoracic aorta [1] = assay: Vasodilatory activity in Sprague-Dawley rat thoracic aorta assessed as inhibition of noradrenaline-induced contractions at 10 uM relative to untreated control; type: functional
Thoracic aorta [2] = assay: Vasodilatory activity in Sprague-Dawley rat thoracic aorta assessed as inhibition of noradrenaline-induced contractions at 100 uM relative to untreated control; type: functional
Rattus norvegicus [3] = assay: Effect on heart rate in spontaneously hypertensive rat assessed as heart rate level at 80 mg/kg, po measured after 1 hr by tail-cuff method (reference value: 415.25 +/- 14.7 bpm); type: ADME, organism-based; details: in vivo
Rattus norvegicus [4] = assay: Antihypertensive activity in spontaneously hypertensive rat assessed as diastolic arterial pressure at 80 mg/kg, po measured after 1 hr by tail-cuff method (reference value: 147.33 +/- 9.8 mmHg); type: functional
Rattus norvegicus [5] = assay: Antihypertensive activity in spontaneously hypertensive rat assessed as mean arterial pressure at 80 mg/kg, po measured after 2 hrs by tail-cuff method (reference value: 163 +/- 8.1 mmHg); type: functional
Rattus norvegicus [6] = assay: Antihypertensive activity in spontaneously hypertensive rat assessed as diastolic arterial pressure at 80 mg/kg, po measured after 0 hrs by tail-cuff method (reference value: 149.50 +/- 5.4 mmHg); type: functional
Rattus norvegicus [7] = assay: Antihypertensive activity in spontaneously hypertensive rat assessed as mean arterial pressure at 80 mg/kg, po measured after 8 hrs by tail-cuff method (reference value: 153.55 +/- 11.43 mmHg); type: functional
Rattus norvegicus [8] = assay: Effect on heart rate in spontaneously hypertensive rat assessed as heart rate level at 80 mg/kg, po measured after 4 hrs by tail-cuff method (reference value: 410.80 +/- 17.4 bpm); type: ADME, organism-based; details: in vivo
Rattus norvegicus [9] = assay: Antihypertensive activity in spontaneously hypertensive rat assessed as systolic arterial pressure at 80 mg/kg, po measured after 0 hrs by tail-cuff method (reference value: 186.10 +/- 4.55 mmHg); type: functional
Rattus norvegicus [10] = assay: Antihypertensive activity in spontaneously hypertensive rat assessed as mean arterial pressure at 80 mg/kg, po measured after 0 hrs by tail-cuff method (reference value: 161.70 +/- 5.12 mmHg); type: functional
Rattus norvegicus [11] = assay: Antihypertensive activity in spontaneously hypertensive rat assessed as systolic arterial pressure at 80 mg/kg, po measured after 8 hrs by tail-cuff method (reference value: 179.42 +/- 13.70 mmHg); type: functional
Rattus norvegicus [12] = assay: Antihypertensive activity in spontaneously hypertensive rat assessed as systolic arterial pressure at 80 mg/kg, po measured after 2 hrs by tail-cuff method (reference value: 189.20 +/- 12.31 mmHg); type: functional
Rattus norvegicus [13] = assay: Antihypertensive activity in spontaneously hypertensive rat assessed as diastolic arterial pressure at 80 mg/kg, po measured after 2 hrs by tail-cuff method (reference value: 149.90 +/- 6 mmHg); type: functional
Rattus norvegicus [14] = assay: Effect on heart rate in spontaneously hypertensive rat assessed as heart rate level at 80 mg/kg, po measured after 0 hrs by tail-cuff method (reference value: 413.17 +/- 10.5 bpm); type: ADME, organism-based; details: in vivo
[15] = target: T1, Alpha-1D adrenergic receptor (Rattus norvegicus, UniProt P23944); assay: Antagonist activity at alpha-1D adrenergic receptor in SPF rat vas thoracic aorta assessed as inhibition of noradrenaline-induced contractions; details: read-out: pA2 (converted)
T1 sequence (P23944 whole entry): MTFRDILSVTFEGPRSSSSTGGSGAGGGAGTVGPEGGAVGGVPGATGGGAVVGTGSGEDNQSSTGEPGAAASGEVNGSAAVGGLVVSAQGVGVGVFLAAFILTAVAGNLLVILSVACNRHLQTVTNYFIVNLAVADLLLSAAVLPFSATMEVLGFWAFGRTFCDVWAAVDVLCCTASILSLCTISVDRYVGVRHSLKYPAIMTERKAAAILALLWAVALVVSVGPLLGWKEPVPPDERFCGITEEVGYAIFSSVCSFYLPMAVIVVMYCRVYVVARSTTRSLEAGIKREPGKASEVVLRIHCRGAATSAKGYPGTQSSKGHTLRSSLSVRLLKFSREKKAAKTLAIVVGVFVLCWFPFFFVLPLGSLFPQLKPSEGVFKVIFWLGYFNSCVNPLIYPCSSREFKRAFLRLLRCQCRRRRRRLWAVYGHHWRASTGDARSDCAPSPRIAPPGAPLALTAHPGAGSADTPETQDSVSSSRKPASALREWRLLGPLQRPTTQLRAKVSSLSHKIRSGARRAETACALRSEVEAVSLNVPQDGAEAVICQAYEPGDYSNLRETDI

Rattus norvegicus [16] = assay: Antihypertensive activity in spontaneously hypertensive rat assessed as mean arterial pressure at 80 mg/kg, po measured after 4 hrs by tail-cuff method (reference value: 150.30 +/- 9.26 mmHg); type: functional
Rattus norvegicus [17] = assay: Antihypertensive activity in spontaneously hypertensive rat assessed as mean arterial pressure at 80 mg/kg, po measured after 1 hr by tail-cuff method (reference value: 160 +/- 9.97 mmHg); type: functional
Rattus norvegicus [18] = assay: Antihypertensive activity in spontaneously hypertensive rat assessed as diastolic arterial pressure at 80 mg/kg, po measured after 4 hrs by tail-cuff method (reference value: 136.12 +/- 5.3 mmHg); type: functional
Rattus norvegicus [19] = assay: Antihypertensive activity in spontaneously hypertensive rat assessed as systolic arterial pressure at 80 mg/kg, po measured after 1 hr by tail-cuff method (reference value: 185.35 +/- 10.30 mmHg); type: functional
Rattus norvegicus [20] = assay: Antihypertensive activity in spontaneously hypertensive rat assessed as systolic arterial pressure at 80 mg/kg, po measured after 4 hrs by tail-cuff method (reference value: 178.66 +/- 17.18 mmHg); type: functional
Rattus norvegicus [21] = assay: Antihypertensive activity in spontaneously hypertensive rat assessed as reduction in mean arterial pressure at 80 mg/kg, po measured after 2 hrs by tail-cuff method; type: functional; parameters: scale not given: the % may be the effect or the level left
Rattus norvegicus [22] = assay: Antihypertensive activity in spontaneously hypertensive rat assessed as diastolic arterial pressure at 80 mg/kg, po measured after 8 hrs by tail-cuff method (reference value: 140.61 +/- 10.3 mmHg); type: functional
Rattus norvegicus [23] = assay: Antihypertensive activity in spontaneously hypertensive rat assessed as mean arterial pressure at 80 mg/kg, po measured after 6 hrs by tail-cuff method (reference value: 151.48 +/- 12.24 mmHg); type: functional
Rattus norvegicus [24] = assay: Antihypertensive activity in spontaneously hypertensive rat assessed as diastolic arterial pressure at 80 mg/kg, po measured after 6 hrs by tail-cuff method (reference value: 137.54 +/- 9.2 mmHg); type: functional
Rattus norvegicus [25] = assay: Effect on heart rate in spontaneously hypertensive rat assessed as heart rate level at 80 mg/kg, po measured after 8 hrs by tail-cuff method (reference value: 412.77 +/- 11.3 bpm); type: ADME, organism-based; details: in vivo
Rattus norvegicus [26] = assay: Antihypertensive activity in spontaneously hypertensive rat assessed as systolic arterial pressure at 80 mg/kg, po measured after 6 hrs by tail-cuff method (reference value: 179.36 +/- 18.33 mmHg); type: functional
Rattus norvegicus [27] = assay: Effect on heart rate in spontaneously hypertensive rat assessed as heart rate level at 80 mg/kg, po measured after 2 hrs by tail-cuff method (reference value: 413.2 +/- 15.2 bpm); type: ADME, organism-based; details: in vivo
Rattus norvegicus [28] = assay: Effect on heart rate in spontaneously hypertensive rat assessed as heart rate level at 80 mg/kg, po measured after 6 hrs by tail-cuff method (reference value: 411.12 +/- 19.1 bpm); type: ADME, organism-based; details: in vivo

Work on `CCOc1ccccc1N1CCN(CC(O)COc2cc3c(cc2OC)C(=O)C(C)OC3)CC1` (stereo not drawn) yielded an inhibition at 10 µM (Thoracic aorta [1]) of 11.6% and an inhibition at 100 µM (Thoracic aorta [2]) of 23.3%.
`COc1ccc2c(c1OCC(O)CN1CCN(c3ccccc3Cl)CC1)COC(C)C2=O` (stereo not drawn) was tested, and the inhibition at 10 µM (Thoracic aorta [1]) was 18.2% and the inhibition at 100 µM (Thoracic aorta [2]) was 29.1%.
With `CCOc1ccccc1N1CCN(CC(O)COc2c(OC)ccc3c2COC(C)C3=O)CC1` (stereo not drawn) the inhibition at 10 µM (Thoracic aorta [1]) was 23.1% and the inhibition at 100 µM (Thoracic aorta [2]) was 36.1%.
`COc1cc2c(cc1OCC(O)CN1CCN(C(=O)c3ccco3)CC1)COC(C)C2=O` (stereo not drawn) gave an inhibition at 10 µM (Thoracic aorta [1]) of 17.8% and an inhibition at 100 µM (Thoracic aorta [2]) of 22.8%.
`COc1ccccc1N1CCN(CC(O)COc2cccc3ccccc23)CC1` (stereo not drawn) [NAFTOPIDIL] gave an Activity (Rattus norvegicus [3]) of 412.14 bpm, an Activity (Rattus norvegicus [4]) of 140.19 mmHg and an Activity (Rattus norvegicus [5]) of 135.94 mmHg. It also gave an Activity (Rattus norvegicus [6]) of 152.14 mmHg, an Activity (Rattus norvegicus [7]) of 152.21 mmHg and an Activity (Rattus norvegicus [8]) of 409.22 bpm. For the same compound, the Activity (Rattus norvegicus [9]) was 181.92 mmHg, the Activity (Rattus norvegicus [10]) was 162.07 mmHg and the Activity (Rattus norvegicus [11]) was 170.5 mmHg. The Activity (Rattus norvegicus [12]) was 148.13 mmHg, the Activity (Rattus norvegicus [13]) was 129.85 mmHg and the Activity (Rattus norvegicus [14]) was 415.15 bpm. It also gave a Kb [15] of 143 nM, an Activity (Rattus norvegicus [16]) of 140.76 mmHg and an Activity (Rattus norvegicus [17]) of 147.25 mmHg. It also gave an Activity (Rattus norvegicus [18]) of 134.31 mmHg, an Activity (Rattus norvegicus [19]) of 161.36 mmHg and an Activity (Rattus norvegicus [20]) of 153.65 mmHg. It also gave an Activity (Rattus norvegicus [21]) of 16.1%, an Activity (Rattus norvegicus [22]) of 143.06 mmHg and an Activity (Rattus norvegicus [23]) of 145.79 mmHg. The inhibition at 10 µM (Thoracic aorta [1]) was 47.5%, the Activity (Rattus norvegicus [24]) was 139.57 mmHg and the Activity (Rattus norvegicus [25]) was 417.25 bpm. It also gave an Activity (Rattus norvegicus [26]) of 158.22 mmHg, an Activity (Rattus norvegicus [27]) of 406.12 bpm and an inhibition at 100 µM (Thoracic aorta [2]) of 65.2%. The Activity (Rattus norvegicus [28]) was 411.19 bpm.
Work on `COc1ccc2c(c1OCC(O)CN1CCN(C(=O)C3CCCO3)CC1)COC(C)C2=O` (stereo not drawn) yielded a Kb [15] of 340 nM, an inhibition at 10 µM (Thoracic aorta [1]) of 31.4% and an inhibition at 100 µM (Thoracic aorta [2]) of 45.1%.
Compound `COc1cc2c(cc1OCC(O)CN1CCN(c3ccccc3Cl)CC1)C(=O)C(C)OC2` (stereo not drawn) has an inhibition at 10 µM (Thoracic aorta [1]) of 30.2% and an inhibition at 100 µM (Thoracic aorta [2]) of 42.4%.
Work on `COc1cc2c(cc1OCC(O)CN1CCN(c3ccccc3Cl)CC1)COC(C)C2=O` (stereo not drawn) yielded an inhibition at 10 µM (Thoracic aorta [1]) of 27% and an inhibition at 100 µM (Thoracic aorta [2]) of 32.4%.
`COc1ccc2c(c1OCC(O)CN1CCN(C(=O)c3ccco3)CC1)COC(C)C2=O` (stereo not drawn) showed an inhibition at 10 µM (Thoracic aorta [1]) of 20.8% and an inhibition at 100 µM (Thoracic aorta [2]) of 31.9%.
In the case of `COc1cc2c(cc1OCC(O)CN1CCN(c3ccccc3OC)CC1)COC(C)C2=O` (stereo not drawn), the Kb [15] is reported as 2200 nM, the inhibition at 10 µM (Thoracic aorta [1]) is reported as 41.7% and the inhibition at 100 µM (Thoracic aorta [2]) is reported as 50.4%.
Compound `COc1ccccc1N1CCN(CC(O)COc2c(OC)ccc3c2COC(C)C3=O)CC1` (stereo not drawn) has an inhibition at 10 µM (Thoracic aorta [1]) of 13.6% and an inhibition at 100 µM (Thoracic aorta [2]) of 24.4%.
In the case of `COc1cc2c(cc1OCC(O)CN1CCN(C(=O)C3CCCO3)CC1)COC(C)C2=O` (stereo not drawn), the inhibition at 10 µM (Thoracic aorta [1]) is reported as 33.9% and the inhibition at 100 µM (Thoracic aorta [2]) is reported as 40.1%.
`CCOc1ccccc1N1CCN(CC(O)COc2cc3c(cc2OC)COC(C)C3=O)CC1` (stereo not drawn) gave a Kb [15] of 485 nM, an inhibition at 10 µM (Thoracic aorta [1]) of 25.4% and an inhibition at 100 µM (Thoracic aorta [2]) of 55.3%.
`COc1cc2c(cc1OCC(O)CN1CCN(c3ccccc3)CC1)C(=O)C(C)OC2` (stereo not drawn) gave an inhibition at 10 µM (Thoracic aorta [1]) of 28.6% and an inhibition at 100 µM (Thoracic aorta [2]) of 46.4%.
`COc1cc2c(cc1OCC(O)CN1CCN(C(=O)c3ccco3)CC1)C(=O)C(C)OC2` (stereo not drawn) gave a Kb [15] of 1550 nM, an inhibition at 10 µM (Thoracic aorta [1]) of 33.4% and an inhibition at 100 µM (Thoracic aorta [2]) of 44.9%.
With `COc1cc2c(cc1OCC(O)CN1CCN(c3ccccc3)CC1)COC(C)C2=O` (stereo not drawn) the Kb [15] was 621 nM, the inhibition at 10 µM (Thoracic aorta [1]) was 39.2% and the inhibition at 100 µM (Thoracic aorta [2]) was 48.1%.
In the case of `COc1cc2c(cc1OCC(O)CN1CCN(c3ccccc3OC)CC1)C(=O)C(C)OC2` (stereo not drawn), the inhibition at 10 µM (Thoracic aorta [1]) is reported as 23.1% and the inhibition at 100 µM (Thoracic aorta [2]) is reported as 44.6%.
`COc1ccc2c(c1OCC(O)CN1CCN(c3ccccc3)CC1)COC(C)C2=O` (stereo not drawn) gave a Kb [15] of 296 nM, an inhibition at 10 µM (Thoracic aorta [1]) of 37.8% and an inhibition at 100 µM (Thoracic aorta [2]) of 59.7%.
